What all share (format): cell-based, human
Test [1] concerns CXCR4/CXCL12 induced p-MEK. Put plainly: CXCR4/CXCL12 induced p-MEK in Jurkat cells (ELISA). Conditions: Homo sapiens, Jurkat, 5 min. Put shortly:
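Jurkat cells in RPMI+GlutaMax containing 10% FBS and 1% penicillin/streptomycin, fresh or conditioned, were resuspended at 2×10^6 cells/ml and […] aliquots placed in tubes. After a 5 min stimulation they were pelleted, rinsed with HBSS and lysed with PMSF and protease/phosphatase inhibitors. Phospho-MEK1 (Ser217/221) was quantified by sandwich ELISA with absorbance read at 450 nm.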
A general note: An ELISA detects its analyte on a solid surface through an enzyme-linked reagent.

In another test the test system is Jurkat cells. Kind of test: CXCL12 mediated cell migration, Jurkat cells. Conditions: Homo sapiens, Jurkat, 1 h, read-out: Percent Inhibition of CXCL12 Mediated Migration (1.1 μM Test Article). Put shortly:
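Jurkat cells in serum-free RPMI with 0.5% BSA, 250,000 per upper chamber of a 5 μm Transwell, with peptides at 1.1 μM final. Migration toward CXCL12 ran 1 h at 37 °C in 5% CO2. Cells reaching the lower chamber quantified by ATP luminescence (CellTiter-Glo 2.0).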

Another test concerns U937 cells. Put plainly: CXCL12 mediated cell migration, U937 cells. As to conditions: Homo sapiens, U-937, 4 h, read-out: Percent Inhibition of CXCL12 Mediated Migration. Here is the method:
Peptides were initially prepared as 1 mM stock in H2O and tested at a final concentration of 1 μM. […] U937 cells were resuspended in serum free media containing 0.5% bovine serum albumin (RPMI+GlutaMax (Gibco/Thermo Fisher Scientific, Gaithersburg, Md.)) at density of 5×10^6 cells/ml. […] Following the 4 hour incubation period the filter inserts were carefully removed and the migration of cells across the filter into the bottom chamber (receiver wells) was determined by measuring ATP levels using Cell TiterGlo 2.0, according to manufacturer's instructions (Promega, Madison, Wis.); luminescence measured using a Cytation 3 plate reader (BioTek, Winooski, Vt.).

Structures are written as SMILES.

As to `c1cc(CN2CCCNCCNCCCNCC2)ccc1CN1CCCNCCNCCCNCC1` [AMD3100, reference compound], the inhibition at 0.1 µM in test [1] (read-out: Percent Inhibition of CXCR4/CXCL12 Induced p-MEK (100 nM Test Article)) was 79%. Besides, the inhibition at 1 µM in test [1] (read-out: Percent Inhibition of CXCR4/CXCL12 Induced p-MEK (1 μM Test Article)) is 91%. Besides, the inhibition at 1.1 µM with Jurkat cells came out at 91%. Also, the inhibition at 30 µM in the test with U937 cells was found to be 99%.
